# According to patent US20120087985A1, “SMALL PEPTIDE SEQUENCES FOR STABILIZING BIOMOLECULES” (Biodel Inc., priority 2010, published 2012):
# How the values were obtained:
# Glucagon = Glucagon (Homo sapiens, UniProt P01275); experiment: Entrapment and precipitation of glucagon in SPS particles; assay type: physicochemical
# Description: Synthesis of SPS and Precipitation of Glucagon
# These sequences are soluble at very low pH and form microparticles that trap peptides in solution within the particles. They remain intact at pH 3-5 in the vicinity of their isoelectric point. Solubility increases in the physiological pH range.
# Glucose oxidase = Glucose oxidase (Aspergillus niger, UniProt P13006); experiment: Stabilization and precipitation of glucose oxidase by SPS; assay type: physicochemical
# [1] = pH of the solution brought to neutral
# Glucagon, sequence (P01275 53-81 limits assumed, species assumed): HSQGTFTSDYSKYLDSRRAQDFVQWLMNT
# Glucose oxidase, sequence (P13006 17-605, species assumed): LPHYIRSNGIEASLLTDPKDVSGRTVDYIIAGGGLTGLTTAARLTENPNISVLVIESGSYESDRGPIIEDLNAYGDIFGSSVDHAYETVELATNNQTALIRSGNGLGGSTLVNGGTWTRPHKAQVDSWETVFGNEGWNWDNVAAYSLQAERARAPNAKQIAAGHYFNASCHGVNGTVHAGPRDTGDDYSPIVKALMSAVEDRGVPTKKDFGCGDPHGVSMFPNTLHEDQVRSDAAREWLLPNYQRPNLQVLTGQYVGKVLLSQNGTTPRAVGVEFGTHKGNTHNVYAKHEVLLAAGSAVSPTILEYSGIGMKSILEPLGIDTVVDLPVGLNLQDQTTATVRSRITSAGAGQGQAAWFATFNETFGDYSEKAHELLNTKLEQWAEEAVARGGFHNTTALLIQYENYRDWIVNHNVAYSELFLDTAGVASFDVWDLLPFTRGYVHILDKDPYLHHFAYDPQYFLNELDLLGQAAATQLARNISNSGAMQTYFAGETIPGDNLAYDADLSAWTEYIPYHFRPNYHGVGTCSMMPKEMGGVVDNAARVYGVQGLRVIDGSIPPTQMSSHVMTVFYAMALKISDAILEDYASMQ
substance,measurement,setting,value
H-Aspartic Acid-Tryptophan-Aspartic Acid —OH,glucagon remained in the particles (entrapment efficiency),Glucagon; glucagon entrapped in SPS particles,more than 60%
same,stabilization of glucagon,Glucagon; in aqueous solution,stabilized it in aqueous solution
same,release of glucagon,Glucagon; [1],released the glucagon intact
same,stabilization and precipitation of glucose oxidase,"Glucose oxidase; in aqueous solution, stored along with insulin glargine at a pH of 4",stabilized and precipitated
same,release of glucose oxidase,Glucose oxidase; [1],released intact
